Results from the kinase profiling compilation of Christmann-Franck et al. (2016).
Where “and” joins values, the source holds several entries; their conditions need not be identical. Identical values can stand only once.

What was measured:
Assay in all cases: radiometric filter-binding kinase assay, Kinase HotSpot
Details in all cases: compound 0.5 µM; ATP 10 µM
TGFBR2 (human) = TGFBR2 (human) (UniProt P37173)
FGR (human) = FGR (human) (UniProt P09769)
NEK6 (human) = NEK6 (human) (UniProt Q9HC98)
PNCK (human) = PNCK (human) (UniProt Q6P2M8)
Sequence of PNCK (human) (Q6P2M8 whole entry, looked up): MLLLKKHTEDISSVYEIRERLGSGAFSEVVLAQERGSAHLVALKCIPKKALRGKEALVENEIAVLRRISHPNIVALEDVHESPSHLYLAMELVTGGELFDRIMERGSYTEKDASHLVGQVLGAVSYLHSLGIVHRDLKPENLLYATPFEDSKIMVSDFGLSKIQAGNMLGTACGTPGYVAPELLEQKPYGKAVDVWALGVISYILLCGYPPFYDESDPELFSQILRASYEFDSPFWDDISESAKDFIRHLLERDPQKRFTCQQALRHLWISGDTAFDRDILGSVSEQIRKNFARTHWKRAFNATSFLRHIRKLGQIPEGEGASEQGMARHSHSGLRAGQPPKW

CDK6 CCND3 (human) = CDK6 CCND3 (human) (UniProt P30281+Q00534)
Sequence of CDK6 CCND3 (human) (P30281 whole entry, looked up): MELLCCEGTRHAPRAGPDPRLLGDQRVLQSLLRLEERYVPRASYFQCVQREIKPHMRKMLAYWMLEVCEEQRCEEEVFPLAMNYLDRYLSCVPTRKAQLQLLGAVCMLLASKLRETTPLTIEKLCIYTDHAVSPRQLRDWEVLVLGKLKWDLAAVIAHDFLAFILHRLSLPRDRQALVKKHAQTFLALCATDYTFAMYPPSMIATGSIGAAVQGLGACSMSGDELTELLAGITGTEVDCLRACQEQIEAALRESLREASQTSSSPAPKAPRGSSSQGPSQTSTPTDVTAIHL
Sequence of CDK6 CCND3 (human) (Q00534 whole entry, looked up): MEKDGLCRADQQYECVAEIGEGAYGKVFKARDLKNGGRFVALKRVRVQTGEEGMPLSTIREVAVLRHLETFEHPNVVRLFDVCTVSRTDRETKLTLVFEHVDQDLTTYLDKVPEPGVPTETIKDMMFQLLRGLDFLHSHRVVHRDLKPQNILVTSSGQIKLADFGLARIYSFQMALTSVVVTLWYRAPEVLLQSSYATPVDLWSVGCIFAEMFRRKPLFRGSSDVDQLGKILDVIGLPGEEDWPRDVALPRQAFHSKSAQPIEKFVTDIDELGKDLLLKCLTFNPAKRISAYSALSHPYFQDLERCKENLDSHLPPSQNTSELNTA

STK33 (human) = STK33 (human) (UniProt Q9BYT3)
STK3 (human) = STK3 (human) (UniProt Q13188)
MAP3K7 TAB1 (human) = MAP3K7 TAB1 (human) (UniProt O43318+Q15750)
MAP2K1 (human) = MAP2K1 (human) (UniProt Q02750)
EPHB3 (human) = EPHB3 (human) (UniProt P54753)
MAPK3 (human) = MAPK3 (human) (UniProt P27361)
Sequence of MAPK3 (human) (P27361 whole entry, looked up): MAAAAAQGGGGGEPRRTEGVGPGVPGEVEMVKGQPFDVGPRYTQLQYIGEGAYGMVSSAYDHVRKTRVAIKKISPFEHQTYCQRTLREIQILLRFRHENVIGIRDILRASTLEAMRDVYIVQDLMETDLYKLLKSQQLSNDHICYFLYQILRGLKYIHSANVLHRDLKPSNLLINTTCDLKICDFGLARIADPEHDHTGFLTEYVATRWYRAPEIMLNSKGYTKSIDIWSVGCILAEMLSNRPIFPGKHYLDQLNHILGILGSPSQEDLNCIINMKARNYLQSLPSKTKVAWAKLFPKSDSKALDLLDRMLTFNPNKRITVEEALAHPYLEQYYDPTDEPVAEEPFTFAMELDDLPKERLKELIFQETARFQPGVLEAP

STK10 (human) = STK10 (human) (UniProt O94804)
DCLK2 (human) = DCLK2 (human) (UniProt Q8N568)
CAMK2A (human) = CAMK2A (human) (UniProt Q9UQM7)
NEK9 (human) = NEK9 (human) (UniProt Q8TD19)
MAPKAPK3 (human) = MAPKAPK3 (human) (UniProt Q16644)
CDK5 CDK5R1 p35 (human) = CDK5 CDK5R1 p35 (human) (UniProt Q00535+Q15078)
PRKG1 (human) = PRKG1 (human) (UniProt Q13976)
Sequence of PRKG1 (human) (Q13976 whole entry, looked up): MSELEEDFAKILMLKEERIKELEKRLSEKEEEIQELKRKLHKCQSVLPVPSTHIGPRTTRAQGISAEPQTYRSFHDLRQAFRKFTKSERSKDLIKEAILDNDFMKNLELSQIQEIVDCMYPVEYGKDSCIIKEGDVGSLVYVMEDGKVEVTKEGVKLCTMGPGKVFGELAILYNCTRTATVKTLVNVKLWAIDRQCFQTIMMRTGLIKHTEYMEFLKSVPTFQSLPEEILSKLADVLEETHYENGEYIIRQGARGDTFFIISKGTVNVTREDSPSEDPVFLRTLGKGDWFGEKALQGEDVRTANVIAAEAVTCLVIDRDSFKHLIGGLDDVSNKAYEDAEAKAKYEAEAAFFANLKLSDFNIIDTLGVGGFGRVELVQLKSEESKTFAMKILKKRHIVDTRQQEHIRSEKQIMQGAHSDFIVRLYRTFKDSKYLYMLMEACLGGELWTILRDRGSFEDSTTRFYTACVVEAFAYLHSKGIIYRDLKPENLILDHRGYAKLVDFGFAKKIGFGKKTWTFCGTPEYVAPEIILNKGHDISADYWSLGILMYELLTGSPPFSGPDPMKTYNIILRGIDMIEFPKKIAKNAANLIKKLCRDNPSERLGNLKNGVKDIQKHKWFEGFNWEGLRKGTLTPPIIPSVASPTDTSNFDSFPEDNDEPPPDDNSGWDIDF

STK17A (human) = STK17A (human) (UniProt Q9UEE5)
CLK1 (human) = CLK1 (human) (UniProt P49759)
JAK3 JH1 JH2 (human) = JAK3 JH1 JH2 (human) (UniProt P52333)
IRAK1 (human) = IRAK1 (human) (UniProt P51617)
GRK5 (human) = GRK5 (human) (UniProt P34947)
STK25 (human) = STK25 (human) (UniProt O00506)
Sequence of STK25 (human) (O00506 whole entry, looked up): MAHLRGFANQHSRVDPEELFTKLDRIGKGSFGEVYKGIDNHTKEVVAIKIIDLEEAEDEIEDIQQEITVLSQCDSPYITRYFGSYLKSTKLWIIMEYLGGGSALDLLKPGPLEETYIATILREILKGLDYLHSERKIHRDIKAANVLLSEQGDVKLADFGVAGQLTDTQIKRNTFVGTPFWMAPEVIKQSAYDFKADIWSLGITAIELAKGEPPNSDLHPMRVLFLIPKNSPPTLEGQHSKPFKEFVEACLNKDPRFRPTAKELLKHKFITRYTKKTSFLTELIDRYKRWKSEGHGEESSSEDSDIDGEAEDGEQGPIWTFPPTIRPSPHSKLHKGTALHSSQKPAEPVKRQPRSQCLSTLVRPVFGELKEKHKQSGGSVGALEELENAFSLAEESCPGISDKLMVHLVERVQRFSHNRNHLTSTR

CAMK2B (human) = CAMK2B (human) (UniProt Q13554)
CAMK4 (human) = CAMK4 (human) (UniProt Q16566)
Sequence of CAMK4 (human) (Q16566 whole entry, looked up): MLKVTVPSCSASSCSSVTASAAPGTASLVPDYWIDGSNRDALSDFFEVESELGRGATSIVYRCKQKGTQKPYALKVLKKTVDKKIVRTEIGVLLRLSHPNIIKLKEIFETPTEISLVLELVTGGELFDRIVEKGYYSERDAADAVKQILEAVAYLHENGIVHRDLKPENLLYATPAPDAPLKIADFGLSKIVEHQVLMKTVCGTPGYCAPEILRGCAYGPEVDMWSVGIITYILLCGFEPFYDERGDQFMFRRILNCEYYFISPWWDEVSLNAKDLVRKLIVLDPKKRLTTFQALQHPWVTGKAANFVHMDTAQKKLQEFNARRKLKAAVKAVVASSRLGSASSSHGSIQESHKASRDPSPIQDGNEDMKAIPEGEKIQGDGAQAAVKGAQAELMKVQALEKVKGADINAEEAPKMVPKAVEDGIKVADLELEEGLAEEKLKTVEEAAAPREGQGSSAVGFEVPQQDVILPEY

SRC (human) = SRC (human) (UniProt P12931)
MAPK8 (human) = MAPK8 (human) (UniProt P45983)
CAMK2G (human) = CAMK2G (human) (UniProt Q13555)
MAP3K5 (human) = MAP3K5 (human) (UniProt Q99683)
MYLK (human) = MYLK (human) (UniProt Q15746)
MAP3K11 (human) = MAP3K11 (human) (UniProt Q16584)
Sequence of MAP3K11 (human) (Q16584 whole entry, looked up): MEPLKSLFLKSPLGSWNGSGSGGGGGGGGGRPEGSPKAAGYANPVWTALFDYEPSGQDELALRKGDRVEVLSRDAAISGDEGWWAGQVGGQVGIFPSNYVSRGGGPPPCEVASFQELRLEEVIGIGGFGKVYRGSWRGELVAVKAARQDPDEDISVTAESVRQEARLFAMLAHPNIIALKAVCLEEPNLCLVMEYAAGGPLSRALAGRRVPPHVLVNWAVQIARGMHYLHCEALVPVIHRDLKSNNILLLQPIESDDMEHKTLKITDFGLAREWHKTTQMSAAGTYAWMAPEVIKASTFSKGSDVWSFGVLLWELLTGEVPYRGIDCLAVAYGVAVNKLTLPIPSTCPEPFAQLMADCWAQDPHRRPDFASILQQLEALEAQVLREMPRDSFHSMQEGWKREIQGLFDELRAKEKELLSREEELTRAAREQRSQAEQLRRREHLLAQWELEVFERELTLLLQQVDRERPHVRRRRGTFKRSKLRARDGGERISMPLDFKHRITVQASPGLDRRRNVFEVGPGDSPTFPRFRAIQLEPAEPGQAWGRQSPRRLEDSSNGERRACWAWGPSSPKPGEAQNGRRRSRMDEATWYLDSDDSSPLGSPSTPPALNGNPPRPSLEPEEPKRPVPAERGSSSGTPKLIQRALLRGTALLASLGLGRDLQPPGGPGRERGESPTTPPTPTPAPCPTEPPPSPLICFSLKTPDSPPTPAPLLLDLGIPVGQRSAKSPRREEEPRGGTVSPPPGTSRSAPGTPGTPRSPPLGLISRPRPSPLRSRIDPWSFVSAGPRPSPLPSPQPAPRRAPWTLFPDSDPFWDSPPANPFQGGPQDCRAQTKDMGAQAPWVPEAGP

PASK (human) = PASK (human) (UniProt Q96RG2)
STK16 (human) = STK16 (human) (UniProt O75716)
Sequence of STK16 (human) (O75716 whole entry, looked up): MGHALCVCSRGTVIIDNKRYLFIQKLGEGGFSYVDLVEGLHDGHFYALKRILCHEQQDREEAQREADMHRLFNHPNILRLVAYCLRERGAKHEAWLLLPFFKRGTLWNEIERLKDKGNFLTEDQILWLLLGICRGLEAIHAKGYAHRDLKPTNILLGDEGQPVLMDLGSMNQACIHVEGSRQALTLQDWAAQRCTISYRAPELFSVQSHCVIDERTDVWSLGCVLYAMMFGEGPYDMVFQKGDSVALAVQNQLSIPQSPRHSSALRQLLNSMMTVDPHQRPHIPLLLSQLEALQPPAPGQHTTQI

MINK1 (human) = MINK1 (human) (UniProt Q8N4C8)
LCK (human) = LCK (human) (UniProt P06239)
MAP4K4 (human) = MAP4K4 (human) (UniProt O95819)
CDK4 CCND3 (human) = CDK4 CCND3 (human) (UniProt P30281+P11802)
Sequence of CDK4 CCND3 (human) (P11802 whole entry, looked up): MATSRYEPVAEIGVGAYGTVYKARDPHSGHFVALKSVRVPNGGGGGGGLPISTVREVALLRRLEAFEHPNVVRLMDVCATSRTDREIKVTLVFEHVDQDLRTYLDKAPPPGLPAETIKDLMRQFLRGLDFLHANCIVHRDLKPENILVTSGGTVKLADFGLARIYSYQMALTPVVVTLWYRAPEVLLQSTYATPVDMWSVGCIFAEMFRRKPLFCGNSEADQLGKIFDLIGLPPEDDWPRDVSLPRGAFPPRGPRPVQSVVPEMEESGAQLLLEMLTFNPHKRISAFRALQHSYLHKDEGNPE
Sequence of CDK4 CCND3 (human) (P30281 whole entry, looked up): as the sequence (P30281 whole entry, looked up) above

CAMK1 (human) = CAMK1 (human) (UniProt Q14012)
ROCK2 (human) = ROCK2 (human) (UniProt O75116)
CAMK2D (human) = CAMK2D (human) (UniProt Q13557)

Sequence of FGR (human) (P09769 whole entry, looked up): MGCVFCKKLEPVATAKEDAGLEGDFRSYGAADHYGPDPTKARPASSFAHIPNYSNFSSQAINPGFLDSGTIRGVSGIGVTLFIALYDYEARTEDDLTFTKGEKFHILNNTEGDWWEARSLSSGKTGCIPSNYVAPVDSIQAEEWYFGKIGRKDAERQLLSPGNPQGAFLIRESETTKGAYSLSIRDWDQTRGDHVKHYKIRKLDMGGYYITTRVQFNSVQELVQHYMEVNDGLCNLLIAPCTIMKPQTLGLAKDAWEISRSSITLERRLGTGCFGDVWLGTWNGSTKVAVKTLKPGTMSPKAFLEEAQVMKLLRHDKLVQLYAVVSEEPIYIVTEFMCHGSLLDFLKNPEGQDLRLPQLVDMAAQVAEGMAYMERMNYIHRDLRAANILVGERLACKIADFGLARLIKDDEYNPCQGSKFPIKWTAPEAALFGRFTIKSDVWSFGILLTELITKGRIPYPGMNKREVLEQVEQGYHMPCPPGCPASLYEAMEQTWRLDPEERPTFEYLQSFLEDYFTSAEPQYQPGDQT

Question: How did the residual activity (TGFBR2 (human)) turn out when `CC#CC(=O)Nc1cc2c(Nc3ccc(F)c(Cl)c3)ncnc2cn1` was run?
Answer: 123%

Question: And the residual activity (FGR (human))?
Answer: 89.6%

Question: What about the residual activity (NEK6 (human)) of the same compound?
Answer: 97.5%

Question: And the residual activity (PNCK (human))?
Answer: 99.4%

Question: And the residual activity (CDK6 CCND3 (human))?
Answer: 103%

Question: And the residual activity (STK33 (human))?
Answer: 88.5%

Question: What about the residual activity (STK3 (human)) of the same compound?
Answer: 106%

Question: And the residual activity (MAP3K7 TAB1 (human))?
Answer: 100%

Question: What about the residual activity (MAP2K1 (human)) of the same compound?
Answer: 95.3%

Question: What about the residual activity (EPHB3 (human)) of the same compound?
Answer: 85.4%

Question: What about the residual activity (MAPK3 (human)) of the same compound?
Answer: 100%

Question: What about the residual activity (STK10 (human)) of the same compound?
Answer: 72.6%

Question: What about the residual activity (DCLK2 (human)) of the same compound?
Answer: 102%

Question: And the residual activity (CAMK2A (human))?
Answer: 108%

Question: And the residual activity (NEK9 (human))?
Answer: 104%

Question: And the residual activity (MAPKAPK3 (human))?
Answer: 105%

Question: And the residual activity (CDK5 CDK5R1 p35 (human))?
Answer: 97.9%

Question: What about the residual activity (PRKG1 (human)) of the same compound?
Answer: 91.7% and 97.6%

Question: What about the residual activity (STK17A (human)) of the same compound?
Answer: 92.9%

Question: And the residual activity (CLK1 (human))?
Answer: 82.5%

Question: What about the residual activity (JAK3 JH1 JH2 (human)) of the same compound?
Answer: -0.181%

Question: And the residual activity (IRAK1 (human))?
Answer: 104%

Question: And the residual activity (GRK5 (human))?
Answer: 105%

Question: What about the residual activity (STK25 (human)) of the same compound?
Answer: 97.1%

Question: What about the residual activity (CAMK2B (human)) of the same compound?
Answer: 99.6%

Question: And the residual activity (CAMK4 (human))?
Answer: 97.4%

Question: What about the residual activity (SRC (human)) of the same compound?
Answer: 97.7%

Question: And the residual activity (MAPK8 (human))?
Answer: 98.9%

Question: And the residual activity (CAMK2G (human))?
Answer: 97.7%

Question: And the residual activity (MAP3K5 (human))?
Answer: 98.9%

Question: And the residual activity (MYLK (human))?
Answer: 98.8%

Question: And the residual activity (MAP3K11 (human))?
Answer: 99.3%

Question: What about the residual activity (PASK (human)) of the same compound?
Answer: 101%

Question: And the residual activity (STK16 (human))?
Answer: 104%

Question: What about the residual activity (MINK1 (human)) of the same compound?
Answer: 91.9%

Question: What about the residual activity (LCK (human)) of the same compound?
Answer: 92.2%

Question: And the residual activity (MAP4K4 (human))?
Answer: 110%

Question: And the residual activity (CDK4 CCND3 (human))?
Answer: 105%

Question: What about the residual activity (CAMK1 (human)) of the same compound?
Answer: 97.9%

Question: And the residual activity (ROCK2 (human))?
Answer: 98.7%

Question: And the residual activity (CAMK2D (human))?
Answer: 100%

Question: Which residual activity (TGFBR2 (human)) does the source give for `Nc1cccc(-c2cc3c(Oc4cccc(O)c4)ncnc3[nH]2)c1` here?
Answer: 42.6%

Question: And the residual activity (FGR (human))?
Answer: 5.28%

Question: What about the residual activity (NEK6 (human)) of the same compound?
Answer: 90.2%

Question: And the residual activity (PNCK (human))?
Answer: 98.2%

Question: What about the residual activity (CDK6 CCND3 (human)) of the same compound?
Answer: 91.3%

Question: And the residual activity (STK33 (human))?
Answer: 80.3%

Question: What about the residual activity (STK3 (human)) of the same compound?
Answer: 109%

Question: And the residual activity (MAP3K7 TAB1 (human))?
Answer: 63%

Question: And the residual activity (MAP2K1 (human))?
Answer: 76.3%

Question: And the residual activity (EPHB3 (human))?
Answer: 78.8%

Question: What about the residual activity (MAPK3 (human)) of the same compound?
Answer: 86.9%

Question: What about the residual activity (STK10 (human)) of the same compound?
Answer: 45.8%

Question: And the residual activity (DCLK2 (human))?
Answer: 89%

Question: What about the residual activity (CAMK2A (human)) of the same compound?
Answer: 115%

Question: What about the residual activity (NEK9 (human)) of the same compound?
Answer: 103%

Question: And the residual activity (MAPKAPK3 (human))?
Answer: 97.6%

Question: What about the residual activity (CDK5 CDK5R1 p35 (human)) of the same compound?
Answer: 72.2%

Question: And the residual activity (PRKG1 (human))?
Answer: 103%

Question: And the residual activity (STK17A (human))?
Answer: 93.7%

Question: And the residual activity (CLK1 (human))?
Answer: 93%

Question: What about the residual activity (JAK3 JH1 JH2 (human)) of the same compound?
Answer: 123%

Question: What about the residual activity (IRAK1 (human)) of the same compound?
Answer: 91.4%

Question: What about the residual activity (GRK5 (human)) of the same compound?
Answer: 128%

Question: What about the residual activity (STK25 (human)) of the same compound?
Answer: 91.6%

Question: What about the residual activity (CAMK2B (human)) of the same compound?
Answer: 101%

Question: And the residual activity (CAMK4 (human))?
Answer: 94.9%

Question: And the residual activity (SRC (human))?
Answer: 2.07%

Question: What about the residual activity (MAPK8 (human)) of the same compound?
Answer: 94.4%

Question: What about the residual activity (CAMK2G (human)) of the same compound?
Answer: 105%

Question: What about the residual activity (MAP3K5 (human)) of the same compound?
Answer: 94.9%

Question: What about the residual activity (MYLK (human)) of the same compound?
Answer: 81.7%

Question: What about the residual activity (MAP3K11 (human)) of the same compound?
Answer: 52.4%

Question: What about the residual activity (PASK (human)) of the same compound?
Answer: 96.2%

Question: What about the residual activity (STK16 (human)) of the same compound?
Answer: 70.4%

Question: What about the residual activity (MINK1 (human)) of the same compound?
Answer: 34.7%

Question: And the residual activity (LCK (human))?
Answer: 24.2%

Question: And the residual activity (MAP4K4 (human))?
Answer: 12.5%

Question: What about the residual activity (CDK4 CCND3 (human)) of the same compound?
Answer: 92.8%

Question: What about the residual activity (CAMK1 (human)) of the same compound?
Answer: 112%

Question: What about the residual activity (ROCK2 (human)) of the same compound?
Answer: 94.5%

Question: And the residual activity (CAMK2D (human))?
Answer: 99.8%
